Test: Absorbance of nanoparticles in the near-infrared region (UV-vis spectrometer)
Type: physicochemical
Conditions: control solutions without DOPA-metal complex
Method: Absorbances in the near-infrared region of the FeMAP NPs and VMAP NPs prepared in Example 1-3 were analyzed through a UV-vis spectrometer, and the analysis results are shown in FIG. 4.

| SMILES | absorbance, absorption spectrum 500 nm to 900 nm |
| --- | --- |
| [Cl][V]([Cl])[Cl] [VCl3] | almost no absorbance |
| [Cl][Fe]([Cl])[Cl] [FeCl3] | almost no absorbance |
